Measured values: article PMC8470274, “Comprehensive Investigation of Stereoselective Food Drug Interaction Potential of Resveratrol on Nine P450 and Six UGT Isoforms in Human Liver Microsomes” (Pharmaceutics, 2021)
Read-outs that look alike come from different tables or passages of the source.

Assays:
CYP2A6 = biological target: T1, CYP2A6 (Homo sapiens, UniProt P11509); test: HLM substrate cocktail, LC-MS/MS; assay type: biochemical; conditions: coumarin 1 µM; NADPH-generating system; 0.25 mg/mL HLM; 37 °C; without 30 min preincubation; read-out: Trans-resveratrol (μM) / Without Preincubation
T1 construct: native enzyme in pooled human liver microsomes, read by coumarin 7-hydroxylation
T1 sequence (P11509 1-494): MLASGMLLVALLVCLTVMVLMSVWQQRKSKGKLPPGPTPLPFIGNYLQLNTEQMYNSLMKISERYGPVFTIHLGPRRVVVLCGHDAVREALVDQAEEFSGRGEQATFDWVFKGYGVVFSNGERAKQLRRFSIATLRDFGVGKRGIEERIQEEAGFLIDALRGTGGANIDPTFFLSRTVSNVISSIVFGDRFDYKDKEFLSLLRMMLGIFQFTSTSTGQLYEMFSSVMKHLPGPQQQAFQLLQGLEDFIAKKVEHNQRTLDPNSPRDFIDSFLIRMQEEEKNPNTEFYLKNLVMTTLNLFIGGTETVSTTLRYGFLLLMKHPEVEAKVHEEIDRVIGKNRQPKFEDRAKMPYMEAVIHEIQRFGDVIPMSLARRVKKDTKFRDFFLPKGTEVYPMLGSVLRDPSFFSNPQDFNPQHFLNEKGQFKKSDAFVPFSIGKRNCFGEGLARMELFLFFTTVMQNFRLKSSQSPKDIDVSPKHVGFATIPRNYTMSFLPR
From the text: HLM substrate cocktail, LC-MS/MS on CYP2A6

CYP3A [1] = biological target: T2, CYP3A; test: HLM inhibition kinetics, Dixon / Lineweaver-Burk, LC-MS/MS; assay type: biochemical, Homo sapiens; conditions: midazolam 0.1-2 µM; NADPH-generating system; without preincubation; noncompetitive; read-out: trans-Resveratrol / Without Preincubation / Ki
T2 construct: gene CYP3A4; native CYP3A in pooled human liver microsomes, read by midazolam 1'-hydroxylation (nifedipine as second probe)

UGT1A4 = biological target: T3, UGT1A4 (Homo sapiens, UniProt P22310); test: HLM UGT substrate cocktail, LC-MS/MS; assay type: biochemical; conditions: trifluoperazine 0.5 µM; UDPGA 5 mM; alamethicin; 0.25 mg/mL HLM; 37 °C; read-out: Trans-Resveratrol
T3 construct: native enzyme in pooled human liver microsomes (alamethicin-treated), read by trifluoperazine glucuronidation
T3 sequence (P22310 29-534): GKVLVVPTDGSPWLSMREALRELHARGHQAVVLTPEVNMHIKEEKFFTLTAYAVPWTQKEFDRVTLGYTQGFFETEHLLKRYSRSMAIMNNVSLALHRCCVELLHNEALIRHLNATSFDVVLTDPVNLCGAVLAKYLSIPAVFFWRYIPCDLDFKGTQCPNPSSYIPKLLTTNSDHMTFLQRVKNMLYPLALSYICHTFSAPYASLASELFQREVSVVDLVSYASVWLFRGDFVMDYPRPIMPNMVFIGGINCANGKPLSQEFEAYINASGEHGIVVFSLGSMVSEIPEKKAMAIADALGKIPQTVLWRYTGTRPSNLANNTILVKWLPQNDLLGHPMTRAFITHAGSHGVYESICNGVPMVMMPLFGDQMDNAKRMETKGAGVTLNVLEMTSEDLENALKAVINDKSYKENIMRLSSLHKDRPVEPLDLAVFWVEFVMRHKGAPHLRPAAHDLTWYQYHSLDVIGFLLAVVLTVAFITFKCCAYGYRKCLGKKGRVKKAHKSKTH
From the text: HLM UGT substrate cocktail, LC-MS/MS on UGT1A4

UGT2B7 = biological target: T4, UGT2B7 (Homo sapiens, UniProt P16662); test: HLM UGT substrate cocktail, LC-MS/MS; assay type: biochemical; conditions: naloxone 0.2 µM; UDPGA 5 mM; alamethicin; 0.25 mg/mL HLM; 37 °C; read-out: Trans-Resveratrol
T4 construct: native enzyme in pooled human liver microsomes (alamethicin-treated), read by naloxone glucuronidation
T4 sequence (P16662 24-529): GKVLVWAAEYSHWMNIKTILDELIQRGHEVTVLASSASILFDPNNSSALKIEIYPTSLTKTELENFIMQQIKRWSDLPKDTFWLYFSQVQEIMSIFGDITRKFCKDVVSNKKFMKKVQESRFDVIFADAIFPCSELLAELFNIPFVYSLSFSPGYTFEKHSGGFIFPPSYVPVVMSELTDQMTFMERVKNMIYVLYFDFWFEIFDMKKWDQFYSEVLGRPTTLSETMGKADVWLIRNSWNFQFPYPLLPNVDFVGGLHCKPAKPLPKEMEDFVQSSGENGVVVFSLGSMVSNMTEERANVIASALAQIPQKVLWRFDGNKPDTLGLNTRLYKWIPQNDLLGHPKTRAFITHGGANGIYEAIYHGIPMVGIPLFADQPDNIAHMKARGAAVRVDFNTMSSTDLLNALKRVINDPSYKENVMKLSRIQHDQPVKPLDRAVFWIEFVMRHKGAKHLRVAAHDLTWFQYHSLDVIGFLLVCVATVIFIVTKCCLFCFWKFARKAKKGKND
From the text: HLM UGT substrate cocktail, LC-MS/MS on UGT2B7

UGT1A6 = biological target: T5, UGT1A6 (Homo sapiens, UniProt P19224); test: HLM UGT substrate cocktail, LC-MS/MS; assay type: biochemical; conditions: N-acetylserotonin 1 µM; UDPGA 5 mM; alamethicin; 0.25 mg/mL HLM; 37 °C; read-out: Trans-Resveratrol
T5 construct: native enzyme in pooled human liver microsomes (alamethicin-treated), read by N-acetylserotonin glucuronidation
T5 sequence (P19224 27-532): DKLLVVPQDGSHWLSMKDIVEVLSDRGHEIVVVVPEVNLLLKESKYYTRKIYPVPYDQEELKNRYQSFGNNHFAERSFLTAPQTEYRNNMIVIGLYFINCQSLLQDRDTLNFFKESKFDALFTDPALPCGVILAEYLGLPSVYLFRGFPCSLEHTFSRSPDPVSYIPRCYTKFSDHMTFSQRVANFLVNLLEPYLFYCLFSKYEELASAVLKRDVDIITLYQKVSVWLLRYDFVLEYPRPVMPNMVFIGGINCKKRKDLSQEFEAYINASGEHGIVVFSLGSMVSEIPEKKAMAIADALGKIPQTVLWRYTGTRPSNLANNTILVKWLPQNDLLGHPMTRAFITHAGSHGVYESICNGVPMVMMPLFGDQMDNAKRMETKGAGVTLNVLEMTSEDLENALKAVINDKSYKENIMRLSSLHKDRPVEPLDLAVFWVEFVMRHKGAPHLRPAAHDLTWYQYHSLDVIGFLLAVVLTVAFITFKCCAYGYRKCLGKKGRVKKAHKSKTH
From the text: HLM UGT substrate cocktail, LC-MS/MS on UGT1A6

UGT1A3 = biological target: T6, UGT1A3 (Homo sapiens, UniProt P35503); test: HLM UGT substrate cocktail, LC-MS/MS; assay type: biochemical; conditions: chenodeoxycholic acid 2 µM; UDPGA 5 mM; alamethicin; 0.25 mg/mL HLM; 37 °C; read-out: Trans-Resveratrol
T6 construct: native enzyme in pooled human liver microsomes (alamethicin-treated), read by chenodeoxycholic acid 24-glucuronidation
T6 sequence (P35503 29-534): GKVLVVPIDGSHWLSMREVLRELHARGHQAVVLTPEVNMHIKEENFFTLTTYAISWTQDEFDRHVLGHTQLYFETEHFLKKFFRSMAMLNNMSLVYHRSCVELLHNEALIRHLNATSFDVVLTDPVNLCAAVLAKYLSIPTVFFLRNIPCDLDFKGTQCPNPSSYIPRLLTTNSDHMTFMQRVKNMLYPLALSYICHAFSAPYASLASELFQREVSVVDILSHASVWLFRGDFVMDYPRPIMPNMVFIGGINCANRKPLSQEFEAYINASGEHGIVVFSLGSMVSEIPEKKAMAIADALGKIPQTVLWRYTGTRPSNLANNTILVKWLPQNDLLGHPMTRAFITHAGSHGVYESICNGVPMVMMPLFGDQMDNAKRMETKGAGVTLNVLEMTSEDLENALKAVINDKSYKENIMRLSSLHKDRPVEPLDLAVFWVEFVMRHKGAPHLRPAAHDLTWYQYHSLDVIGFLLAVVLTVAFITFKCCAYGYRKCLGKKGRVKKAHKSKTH
From the text: HLM UGT substrate cocktail, LC-MS/MS on UGT1A3

CYP3A [2] = test system: T2, CYP3A; test: HLM substrate cocktail, LC-MS/MS; assay type: biochemical, Homo sapiens; conditions: midazolam 0.1 µM, NADPH-generating system, 0.25 mg/mL HLM, 37 °C, without 30 min preincubation
From the text: HLM substrate cocktail, LC-MS/MS on CYP3A

UGT1A1 [3] = biological target: T7, UGT1A1 (Homo sapiens, UniProt P22309); test: HLM UGT substrate cocktail, LC-MS/MS; assay type: biochemical; conditions: SN-38 0.5 µM, UDPGA 5 mM, alamethicin, 0.25 mg/mL HLM, 37 °C
T7 construct: native enzyme in pooled human liver microsomes (alamethicin-treated), read by SN-38 glucuronidation
T7 sequence (P22309 26-533): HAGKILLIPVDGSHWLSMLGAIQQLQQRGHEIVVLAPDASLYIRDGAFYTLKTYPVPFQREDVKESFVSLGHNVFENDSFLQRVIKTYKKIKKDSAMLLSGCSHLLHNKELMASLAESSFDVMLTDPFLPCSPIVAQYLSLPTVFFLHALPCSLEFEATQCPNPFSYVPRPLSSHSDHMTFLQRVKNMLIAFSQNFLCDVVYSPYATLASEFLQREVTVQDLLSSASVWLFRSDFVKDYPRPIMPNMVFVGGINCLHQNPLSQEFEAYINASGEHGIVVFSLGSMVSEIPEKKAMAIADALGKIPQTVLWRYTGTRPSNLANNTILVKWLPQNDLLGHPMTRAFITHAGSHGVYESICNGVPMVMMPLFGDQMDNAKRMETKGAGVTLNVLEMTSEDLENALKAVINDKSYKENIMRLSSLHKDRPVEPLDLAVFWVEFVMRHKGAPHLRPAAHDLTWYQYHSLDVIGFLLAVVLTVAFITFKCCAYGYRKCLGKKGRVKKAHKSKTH
From the text: HLM UGT substrate cocktail, LC-MS/MS on UGT1A1

UGT1A9 = biological target: T8, UGT1A9 (Homo sapiens, UniProt O60656); test: HLM UGT substrate cocktail, LC-MS/MS; assay type: biochemical; conditions: mycophenolic acid 0.2 µM; UDPGA 5 mM; alamethicin; 0.25 mg/mL HLM; 37 °C; read-out: Trans-Resveratrol
T8 construct: native enzyme in pooled human liver microsomes (alamethicin-treated), read by mycophenolic acid glucuronidation
T8 sequence (O60656 26-530): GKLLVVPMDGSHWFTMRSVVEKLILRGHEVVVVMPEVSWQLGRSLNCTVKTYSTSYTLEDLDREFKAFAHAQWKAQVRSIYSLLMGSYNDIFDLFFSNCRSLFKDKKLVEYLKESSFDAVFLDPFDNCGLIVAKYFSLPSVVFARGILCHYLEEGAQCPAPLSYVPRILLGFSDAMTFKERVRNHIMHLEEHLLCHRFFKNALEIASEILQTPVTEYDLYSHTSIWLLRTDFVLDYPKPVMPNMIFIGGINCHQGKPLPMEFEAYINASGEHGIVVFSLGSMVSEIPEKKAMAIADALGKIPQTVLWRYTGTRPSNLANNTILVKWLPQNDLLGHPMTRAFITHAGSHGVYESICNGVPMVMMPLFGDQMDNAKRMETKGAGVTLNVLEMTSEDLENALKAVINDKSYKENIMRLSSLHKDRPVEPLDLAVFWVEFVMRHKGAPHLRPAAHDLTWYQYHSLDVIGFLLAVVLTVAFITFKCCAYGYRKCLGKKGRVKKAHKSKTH
From the text: HLM UGT substrate cocktail, LC-MS/MS on UGT1A9

UGT1A1 [4] = biological target: T7, UGT1A1; test: HLM inhibition kinetics, Dixon / Lineweaver-Burk, LC-MS/MS; assay type: biochemical; conditions: SN-38 0.5-10 µM; UDPGA; noncompetitive; read-out: trans-Resveratrol / Without Preincubation / Ki

For `Oc1ccc(/C=C/c2cc(O)cc(O)c2)cc1` [A, 3,5,4′-Trihydroxystilbene], the IC50 (CYP2A6) was over 50 µM, the Ki (CYP3A [1]) was 23.8 ± 2.3 µM and the IC50 (UGT1A4) was over 50 µM. For the same molecule, the IC50 (UGT2B7) was over 50 µM, the IC50 (UGT1A6) was over 50 µM and the IC50 (UGT1A3) was over 50 µM. It also gave an IC50 (CYP3A [2]; read-out: Trans-resveratrol (μM) / Without Preincubation) of 29.2 ± 4.5 µM, an IC50 (UGT1A1 [3]; read-out: Trans-Resveratrol) of 9.57 ± 1.6 µM and an IC50 (UGT1A9) of over 50 µM. It also gave a Ki (UGT1A1 [4]) of 27.4 ± 3.6 µM.

`Oc1ccc(/C=C\c2cc(O)cc(O)c2)cc1` [B, 3,5,4′-Trihydroxystilbene] showed an IC50 (CYP2A6) of over 50 µM, an IC50 (UGT1A4) of over 50 µM and an IC50 (UGT2B7) of over 50 µM. It also gave an IC50 (UGT1A6) of over 50 µM, an IC50 (UGT1A3) of over 50 µM and an IC50 (CYP3A [2]; read-out: Cis-resveratrol (μM) / Without Preincubation) of over 50 µM. For the same molecule, the IC50 (UGT1A1 [3]; read-out: Cis-Resveratrol) was over 50 µM and the IC50 (UGT1A9) was over 50 µM.
